Laboratory results published in US20040214867A1, “Quaternary salts of n-substituted cyclic or acyclic amines as pharmaceuticals” (priority 2003, published 2004).

Tested on: citric acid-induced cough responses
Test: Citric acid-induced cough in conscious guinea-pigs (aerosol pre-treatment)
Type: in vivo, guinea-pig
Settings: aerosol 10.0 mg/ml immediately before exposure to citric acid (1M); compared with control (procaine) pre-treated guinea pigs; 15 minute observation period
Description: The following method is one of the general methods available to determine the antitussive activity of the compounds of the present invention.
Male albino Dunkin-Hartley strain guinea-pigs (weight 300-400 g) can be obtained from various commercial suppliers.
The method is a modification of that described by Adcock J. J., Schneider C. and Smith T. W., “Effects of Morphine and a Novel Opioid Pentapeptide BW443C, on Cough, Nociception and Ventilation in the Unanaesthetized Guinea-pig”, Br. J. Pharmacol., 93, 93-100 (1988). […]
Cylinder air is introduced into the exposure chamber at a flow rate of 1 liter/min maintained by a needle valve and monitored by a rotameter. […]
Cough responses are induced by exposure to an aerosol of citric acid (1M) for 10 minutes. Animals are continuously monitored by trained observer, and the number of coughs are counted during a 15 minute period from commencement of the citric acid aerosol administration. […]
The three types of response are differentiated primarily by sound and visual observation. […] Each cough is marked on the Grass polygraph paper trace, and from these record numbers, frequency and time of onset of coughs are determined. […]
Quantities of drugs are weighed out and dissolved in a vehicle. […] The sequence of pre-treatment administration is determined according to a 4×4 Latin Square design. […]

For CC[N+](C)(CC)CCOC(=O)c1ccc(N)cc1.[I-] [N-methyl-procaine iodide, 2-[(4-Aminobenzoyl)oxy]-N,N-diethyl-N-methylethanaminium iodide], the “inhibition of cough responses” value was > 50%.
